In patent US10913753B2, “Thienopyridine carboxamides as ubiquitin-specific protease inhibitors” (FORMA Therapeutics, Inc., priority 2016, dated 2021):

Columns and labels:
USP28 = USP28 (Homo sapiens (Human), UniProt Q96RU2); test: Ubiquitin-Rhodamine 110 Assay for USP28 Activity; type: biochemical
Summary of the method: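 Single-point screen at 10 μM, 90 min; follow-up dose-response (25 μM top, 3-fold) with 75 pM USP28 (1-1077)-TEV-6*His, 30 min compound preincubation, Ub-Rh110 substrate for 20 min at room temperature, citric acid stop. Buffer pH 8.0 Tris; fluorescence 485/535 nm; IC50 by 4-parameter logistic fit of % inhibition.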

USP25 = USP25 (Homo sapiens (Human), UniProt Q9UHP3); test: Ubiquitin-Rhodamine 110 Assay for USP25 Activity; type: biochemical
Summary of the method: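 USP25-His6 (75 pM) preincubated 30 min with compound (25 μM to 1.3 nM, 10-point 3-fold), then Ub-Rh110 added; 45 min at room temperature in pH 8.0 Tris buffer with BME, BGG, Triton X-100, stopped with 10 mM citric acid. Fluorescence 485/535 nm; % inhibition vs no-enzyme and DMSO controls, IC50 by 4-parameter logistic fit.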

Chain of USP28 (Q96RU2 whole entry): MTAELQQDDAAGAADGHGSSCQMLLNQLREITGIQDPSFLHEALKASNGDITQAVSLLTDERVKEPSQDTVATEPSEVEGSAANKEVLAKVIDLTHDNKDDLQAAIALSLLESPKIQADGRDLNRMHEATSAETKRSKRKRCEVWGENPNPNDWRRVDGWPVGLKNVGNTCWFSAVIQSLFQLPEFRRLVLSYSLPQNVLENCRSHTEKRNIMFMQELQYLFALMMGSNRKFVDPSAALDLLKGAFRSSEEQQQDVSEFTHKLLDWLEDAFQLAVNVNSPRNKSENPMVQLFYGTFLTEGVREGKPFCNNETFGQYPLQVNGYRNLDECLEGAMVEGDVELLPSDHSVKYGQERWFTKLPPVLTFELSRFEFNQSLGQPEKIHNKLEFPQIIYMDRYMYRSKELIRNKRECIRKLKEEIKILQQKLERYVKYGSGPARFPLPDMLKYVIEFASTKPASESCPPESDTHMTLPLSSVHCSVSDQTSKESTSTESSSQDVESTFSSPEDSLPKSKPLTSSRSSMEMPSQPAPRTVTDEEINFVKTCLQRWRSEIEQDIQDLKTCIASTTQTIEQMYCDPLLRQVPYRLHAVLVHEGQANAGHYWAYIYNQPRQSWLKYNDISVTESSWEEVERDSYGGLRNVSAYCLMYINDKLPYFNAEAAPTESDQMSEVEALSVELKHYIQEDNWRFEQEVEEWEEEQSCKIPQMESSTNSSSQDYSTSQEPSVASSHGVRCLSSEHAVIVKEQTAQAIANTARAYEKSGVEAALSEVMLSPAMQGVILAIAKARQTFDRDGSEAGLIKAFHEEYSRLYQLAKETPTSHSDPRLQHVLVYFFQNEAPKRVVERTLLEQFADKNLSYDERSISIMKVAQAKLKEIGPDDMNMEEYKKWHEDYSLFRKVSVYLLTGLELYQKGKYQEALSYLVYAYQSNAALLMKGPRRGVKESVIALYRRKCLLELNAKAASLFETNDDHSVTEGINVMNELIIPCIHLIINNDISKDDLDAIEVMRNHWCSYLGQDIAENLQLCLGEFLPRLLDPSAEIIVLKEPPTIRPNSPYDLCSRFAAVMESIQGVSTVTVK
Chain of USP25 (Q9UHP3 whole entry): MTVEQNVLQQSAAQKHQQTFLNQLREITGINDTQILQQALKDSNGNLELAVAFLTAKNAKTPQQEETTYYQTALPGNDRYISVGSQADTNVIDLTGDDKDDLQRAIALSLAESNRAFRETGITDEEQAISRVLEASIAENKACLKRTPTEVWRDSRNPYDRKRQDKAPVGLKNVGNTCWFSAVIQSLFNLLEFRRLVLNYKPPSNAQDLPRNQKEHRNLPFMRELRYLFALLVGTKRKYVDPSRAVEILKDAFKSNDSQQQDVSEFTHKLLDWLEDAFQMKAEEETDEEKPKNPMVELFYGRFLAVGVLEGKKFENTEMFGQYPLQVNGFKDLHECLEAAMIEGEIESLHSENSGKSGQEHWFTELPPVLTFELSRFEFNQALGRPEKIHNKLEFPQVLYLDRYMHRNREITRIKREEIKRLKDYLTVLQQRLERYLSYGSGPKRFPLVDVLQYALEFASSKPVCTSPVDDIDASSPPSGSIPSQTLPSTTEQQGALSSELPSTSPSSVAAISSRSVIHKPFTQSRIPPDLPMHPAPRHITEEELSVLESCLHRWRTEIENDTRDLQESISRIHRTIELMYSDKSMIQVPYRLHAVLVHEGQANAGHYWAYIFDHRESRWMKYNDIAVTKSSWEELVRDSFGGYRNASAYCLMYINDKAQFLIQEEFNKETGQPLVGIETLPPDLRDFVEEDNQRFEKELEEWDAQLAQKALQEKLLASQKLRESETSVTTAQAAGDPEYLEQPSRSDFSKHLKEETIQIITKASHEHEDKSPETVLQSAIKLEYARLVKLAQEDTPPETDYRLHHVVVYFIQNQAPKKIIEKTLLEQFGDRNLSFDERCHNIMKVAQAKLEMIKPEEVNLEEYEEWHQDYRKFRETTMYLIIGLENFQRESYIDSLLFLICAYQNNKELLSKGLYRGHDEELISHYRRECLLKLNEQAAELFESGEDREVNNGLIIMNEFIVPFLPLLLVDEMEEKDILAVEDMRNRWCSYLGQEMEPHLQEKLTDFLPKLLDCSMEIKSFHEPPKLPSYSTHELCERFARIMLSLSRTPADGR

| Structure (SMILES) | IC50 (USP28) [µM] | IC50 (USP25) [µM] |
| --- | --- | --- |
| COCc1cc(N2CCNCC2)ccc1CCNC(=O)c1sc2nc(C)ccc2c1N [Compound I-37] | < 0.2 | 0.2 to 2 |
| Nc1c(C(=O)NCCc2cc(F)c(N3CC4CCC(C3)N4)cc2F)sc2ncc(F)cc12 [Compound I-69] | < 0.2 | 0.2 to 2 |
| CN1CCC(c2ccc(CCNC(=O)c3sc4nc(Cl)ccc4c3N)cc2)CC1 [Compound I-58] | < 0.2 | 0.2 to 2 |
| Cc1cc2c(N)c(C(=O)NCCc3ccc(N4CCNCC4)cc3)sc2nc1C [Compound I-61] | 0.2 to 2 | 2 to 10 |
| Cc1cc(C(F)(F)F)c2c(N)c(C(=O)NCCc3ccc(N4CCNCC4)c(F)c3)sc2n1 [Compound I-7] | 0.2 to 2 | < 0.2 |
| Cc1cc(C(F)F)c2c(N)c(C(=O)NCCc3ccc(N4CCNCC4)cc3)sc2n1 [Compound I-14] | < 0.2 | < 0.2 |
| Nc1c(C(=O)NCCc2ccc(N3CCNCC3)c(Cl)c2)sc2ncc(Cl)cc12 [Compound I-40] | 0.2 to 2 | 2 to 10 |
| CN[C@@H]1CN(c2cc(F)c(CCNC(=O)c3sc4nc(C)ccc4c3N)cc2F)C[C@@H]1F (single isomer, unassigned) [Example I-211] | 0.2 to 2 | 2 to 10 |
| Cc1ccc2c(N)c(C(=O)NCCc3ccc(N4CC5CCC(C4)N5)c(Cl)c3)sc2n1 [Compound I-20] | 0.2 to 2 | 0.2 to 2 |
| CC(C)Nc1ccc2c(N)c(C(=O)NCCc3ccc(N4CCNCC4)cc3)sc2n1 [Example I-189] | 0.2 to 2 | 2 to 10 |
| Cc1ccc2c(N)c(C(=O)NCCc3ccc(N4CC5CCC(C4)N5)cc3F)sc2n1 [Compound I-22] | < 0.2 | 0.2 to 2 |
